Measurements published in EP3117212B1, “METHOD OF STUDYING ABCG2 PROTEIN ACTIVITY AND USE OF 2-AMINOETHYL DIPHENYLBORINATE” (Uniwersytet Lodzki, priority 2014, dated 2015).
Residue numbers refer to the chain shown, from its start.

Key:
Assay type in all cases: cell-based
human ABCG2 protein = molecular target: T1, human ABCG2 protein (Homo sapiens, UniProt Q9UNQ0); assay: Polyphenol accumulation in SB MDCKII-BCRP cells with/without Ko143, APB conjugate fluorescence (substrate verification); conditions: 20 µM compound; for transport substrate for the ABCG2 protein: 1 h, 37°C, with/without 10 µM Ko143, significantly higher fluorescence with Ko143; for transport capacity: relative difference between fluorescence values with/without 10 µM Ko143
T1 construct: host or cells: MDCKII (SB MDCKII-BCRP cell line)
T1 sequence (Q9UNQ0 1-655): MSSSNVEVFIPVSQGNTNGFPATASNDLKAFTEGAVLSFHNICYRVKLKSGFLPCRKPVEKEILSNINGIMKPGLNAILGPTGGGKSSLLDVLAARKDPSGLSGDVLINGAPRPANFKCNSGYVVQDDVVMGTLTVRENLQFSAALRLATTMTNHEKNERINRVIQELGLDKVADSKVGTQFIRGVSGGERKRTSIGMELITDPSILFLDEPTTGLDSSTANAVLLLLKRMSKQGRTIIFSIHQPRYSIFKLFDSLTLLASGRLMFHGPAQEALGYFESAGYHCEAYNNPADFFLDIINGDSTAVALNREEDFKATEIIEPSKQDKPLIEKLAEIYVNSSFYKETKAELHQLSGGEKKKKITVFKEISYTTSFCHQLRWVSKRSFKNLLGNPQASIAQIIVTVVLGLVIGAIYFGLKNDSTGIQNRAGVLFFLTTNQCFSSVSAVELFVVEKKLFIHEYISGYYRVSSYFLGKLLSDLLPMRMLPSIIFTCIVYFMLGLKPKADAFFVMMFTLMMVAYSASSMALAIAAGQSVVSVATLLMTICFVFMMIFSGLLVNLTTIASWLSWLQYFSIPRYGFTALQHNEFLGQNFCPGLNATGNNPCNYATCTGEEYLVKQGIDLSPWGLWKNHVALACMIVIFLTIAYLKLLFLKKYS
Description: The results are shown on Fig. 1. […] The relative difference between the fluorescence values leads to the conclusion that transport capacity is the highest for compounds 9, 3 and 1 and the lowest for compounds 2 and 6.
On Figure 1 fluorescence of the conjugates of APB and polyphenolic compounds is shown for the cell lysates (mean ± the standard error of the mean, n=5; statistically significant differences at the significance level <0.05 are marked with * symbol).

ABCG2 wild-type = molecular target: T2, ABCG2 wild-type (Homo sapiens, UniProt Q9UNQ0); assay: Luteolin transport in transfected HeLa cells with/without Ko143, APB conjugate fluorescence; conditions: 10 µM luteolin, 0 or 10 µM Ko143, 1 h
T2 construct: expressed in transfected cells; host or cells: HeLa, transient transfection (FuGene HD), pcDNA6.2/V5 vector
T2 sequence (Q9UNQ0 1-655): T1 sequence (Q9UNQ0 1-655)
Experimental: (§1) A plasmid expression vector for the ABCG2 protein was prepared using standard molecular biology techniques. The vector was obtained by cloning of a sequence encoding human ABCG2 and (as an N-terminal fusion protein within the same open reading frame) a sequence encoding TagGFP2 fluorescent protein (obtained from the pTagGFP2-C plasmid produced by Evrogen, cat. no. FP191) into the pcDNA6.2/V5 plasmid. Subsequently, a series of expression vectors for sequential variants of the ABCG2 protein were prepared by performing site-directed mutagenesis in the codons coding particular amino acids in this sequence. For this purpose the Quickchange Lightning kit for site-directed mutagenesis manufactered by AgilentStratagene (cat. no. 210513) was used, in full compliance with the manufacturer's instructions. In this way, the vectors encoding the following sequential variants of the ABCG2 protein were obtained (letters denote the standard IUPAC codes for amino acid residues changed with regard to the wild-type sequence, the number denotes the position of the amino acid residue in the polypeptide chain from the N-terminus of the protein): R482G,R482K, K86M.
(§2) 72 hours before the experiment, the cells were chemically transfected with the above mentioned plasmids using the FuGene HD reagent (product from Promega, cat. no. E2311). The transfection mixture contained 150 µl of OptiMEM culture medium (product from Life Technologies, cat. no. 31985070), 3.3 µg of plasmid DNA and 9.9 µl of Fugene HD. The mixture was vortexed, incubated for 5 minutes and added to 2 ml of medium and the cells on the 6-well plate. 24 hours before the experiment, the cells were plated on a standard black 96-well polystyrene microplate with surface modified for cell culture (product from Thermo Scientific Nunc cat. no. 137101) with 50,000 cells per well in standard DMEM culture medium (product from LifeTechnologies cat. no. 32430) supplemented with 10% fetal bovine serum. […] The cells were then incubated for 1 h in a standard incubator for in vitro cell culture in temperature of 37°C. The incubation was followed by removing the medium and the cells were washed twice with portions of 50 µl of buffered saline (PBS, product from Life Technologies cat. no. 10010) in temperature of 4°C. Then the cells were lysed (solubilized) in 100 µl of PBS with the following additives: 0.5% (v/v) Triton X-100 surfactant (product from Sigma Aldrich, cat. no. T8787) and 0.25 mg/ml 2-aminoethyl-diphenylborinate (APB, CAS no. 208-366-5, product from Sigma Aldrich, cat. no. D9754). The compound APB was added to the PBS solution from a stock solution in DMSO with a concentration of 250 mg/ml permanently stored in temperature of -20°C. The cells were lysed by shaking the microplate in room temperature for 5 minutes.

ABCG2 R482K = molecular target: T3, ABCG2 R482K (Homo sapiens, UniProt Q9UNQ0, R482K); assay: as above; conditions: R482K variant in HeLa cells; 10 µM luteolin, 0 or 10 µM Ko143, 1 h
T3 construct: expressed in transfected cells; host or cells: HeLa, transient transfection (FuGene HD), pcDNA6.2/V5 vector
T3 sequence (Q9UNQ0 1-655 R482K): T1 sequence (Q9UNQ0 1-655) with R482K
Experimental: as §1, §2

ABCG2 K86M = molecular target: T4, ABCG2 K86M (Homo sapiens, UniProt Q9UNQ0, K86M); assay: as above; conditions: K86M variant in HeLa cells; 10 µM luteolin, 0 or 10 µM Ko143, 1 h
T4 construct: expressed in transfected cells; host or cells: HeLa, transient transfection (FuGene HD), pcDNA6.2/V5 vector
T4 sequence (Q9UNQ0 1-655 K86M): T1 sequence (Q9UNQ0 1-655) with K86M
Experimental: as §1, §2

ABCG2 R482G = molecular target: T5, ABCG2 R482G (Homo sapiens, UniProt Q9UNQ0, R482G); assay: as above; conditions: R482G variant in HeLa cells; 10 µM luteolin, 0 or 10 µM Ko143, 1 h
T5 construct: expressed in transfected cells; host or cells: HeLa, transient transfection (FuGene HD), pcDNA6.2/V5 vector
T5 sequence (Q9UNQ0 1-655 R482G): T1 sequence (Q9UNQ0 1-655) with R482G
Experimental: as §1, §2

Question: Which “transport substrate for the ABCG2 protein” value (“transport substrate” for short) (human ABCG2 protein) does the source give for `O=c1c(O)c(-c2ccc(O)c(O)c2)oc2cc(O)ccc12` [Compound 4, fisetin] here?
Answer: Its value is “ABCG2 protein substrates”.

Question: How did the “transport substrate” value (human ABCG2 protein) turn out when `O=c1c(O)c(-c2ccc(O)c(O)c2)oc2cc(O)cc(O)c12` [Compound 1, quercetin] was run?
Answer: Its value is “ABCG2 protein substrates”.

Question: And the transport capacity (human ABCG2 protein)?
Answer: Its transport capacity is “highest”.

Question: For `O=c1c(O)c(-c2ccc(O)cc2)oc2cc(O)cc(O)c12` [Compound 2, kaempferol], which “transport substrate” value (human ABCG2 protein) is on record?
Answer: The value was “ABCG2 protein substrates”.

Question: And the transport capacity (human ABCG2 protein)?
Answer: Its transport capacity is “lowest”.

Question: What does the source list for `O=c1cc(-c2ccc(O)c(O)c2)oc2cc(O)cc(O)c12` [Compound 3, luteolin]?
Answer: transport substrate for the ABCG2 protein (human ABCG2 protein): ABCG2 protein substrates; transport capacity (human ABCG2 protein): highest; transport activity towards luteolin (ABCG2 wild-type): similar, maximum transport activity; transport activity towards luteolin (ABCG2 R482K): slightly decreased in relation to the wild-type; transport activity towards luteolin (ABCG2 K86M): did not show any transport activity; transport activity towards luteolin (ABCG2 R482G): similar, maximum transport activity

Question: How did the “transport substrate” value (human ABCG2 protein) turn out when `COc1ccc2oc(-c3ccc(OC)c(OC)c3)c(O)c(=O)c2c1` [Compound 6, 6,3',4'-trimethoxy-3-hydroxyflavone] was run?
Answer: Its value is “ABCG2 protein substrates”.

Question: What about the transport capacity (human ABCG2 protein) of the same compound?
Answer: Its transport capacity is “lowest”.

Question: With `COc1ccc(OC)c(-c2oc3ccccc3c(=O)c2O)c1` [Compound 9, 2',5'-dimethoxy-3-hydroxyflavone] as the compound, how does the “transport substrate” value (human ABCG2 protein) read?
Answer: The value was “ABCG2 protein substrates”.

Question: What about the transport capacity (human ABCG2 protein) of the same compound?
Answer: Its transport capacity is “highest”.
